Results reported in ChEMBL document CHEMBL1141555, “Synthesis and biological activity of piperazine and diazepane amides that are histamine H3 antagonists and serotonin reuptake inhibitors” (Bioorg Med Chem Lett, 2008).

What was measured:
Type in all cases: ADME, organism-based
[1] = Bioavailability in rat; conditions: in vivo
[2] = Volume of distribution at steady state in rat; conditions: in vivo, read-out: Vdss
[3] = Half life in iv dosed rat; conditions: in vivo
[4] = Drug level in rat plasma at 10 mg/kg, po; parameters: dose 10 mg/kg, route oral
[5] = Drug level in rat brain at 10 mg/kg, po; parameters: dose 10 mg/kg, route oral
[6] = Clearance in rat; conditions: in vivo

bioavailability [1]: 93% | Vd [2]: 13 L/kg | half-life [3]: 16.1 h | Cmax [4]: > 1000 nM | Cmax [5]: > 1000 nM | clearance [6]: 10.2 mL/min/kg
Compound: CNCc1cc(C(=O)N2CCN(C3CC3)CC2)ccc1Oc1ccc(Cl)c(Cl)c1
